Measurements published in PMC6058925 (JACC: Basic to Translational Science, 2017).

Tested on: adult male CD1 mice, ischemia-reperfusion
Details: mouse, in vivo

AAT: plasma-derived alpha-1 antitrypsin (Aralast NP, Baxter)
Infarct size when given with the LRP1 blocking antibody: significant increase in infarct size
